PubChem BioAssay (NCI)
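GI50 is the concentration that inhibits growth by half. At the TGI there is no net growth.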

Experiments:
Experiment in all cases: NCI-60 cell line screen, 384-well format
786-0 renal = system: 786-0 renal
A498 renal = system: A498 renal
A549 NSCLC = system: A549 NSCLC
ACHN renal = system: ACHN renal
BT-549 breast = system: BT-549 breast
CAKI-1 renal = system: CAKI-1 renal
CCRF-CEM leukemia = system: CCRF-CEM leukemia
COLO 205 colon = system: COLO 205 colon
DU-145 prostate = system: DU-145 prostate
EKVX NSCLC = system: EKVX NSCLC
HCC-2998 colon = system: HCC-2998 colon
HCT-116 colon = system: HCT-116 colon
HCT-15 colon = system: HCT-15 colon
HL-60(TB) leukemia = system: HL-60(TB) leukemia
HOP-62 NSCLC = system: HOP-62 NSCLC
HOP-92 NSCLC = system: HOP-92 NSCLC
HS 578T breast = system: HS 578T breast
HT29 colon = system: HT29 colon
IGROV1 ovarian = system: IGROV1 ovarian
K-562 leukemia = system: K-562 leukemia
KM12 colon = system: KM12 colon
LOX IMVI melanoma = system: LOX IMVI melanoma
M14 melanoma = system: M14 melanoma
MALME-3M melanoma = system: MALME-3M melanoma
MCF7 breast = system: MCF7 breast
MDA-MB-231 breast = system: MDA-MB-231 breast
MDA-MB-435 melanoma = system: MDA-MB-435 melanoma
MDA-MB-468 breast = system: MDA-MB-468 breast
MOLT-4 leukemia = system: MOLT-4 leukemia
NCI-H226 lung = system: NCI-H226 lung
NCI-H23 lung = system: NCI-H23 lung
NCI-H322M lung = system: NCI-H322M lung
NCI-H460 NSCLC = system: NCI-H460 NSCLC
NCI-H522 lung = system: NCI-H522 lung
NCI/ADR-RES ovarian = system: NCI/ADR-RES ovarian
OVCAR-3 ovarian = system: OVCAR-3 ovarian
OVCAR-4 ovarian = system: OVCAR-4 ovarian
OVCAR-5 ovarian = system: OVCAR-5 ovarian
OVCAR-8 ovarian = system: OVCAR-8 ovarian
PC-3 prostate = system: PC-3 prostate
RPMI-8226 leukemia = system: RPMI-8226 leukemia
RXF 393 renal = system: RXF 393 renal
SF-268 CNS = system: SF-268 CNS
SF-295 CNS = system: SF-295 CNS
SF-539 CNS = system: SF-539 CNS
SK-MEL-28 melanoma = system: SK-MEL-28 melanoma
SK-MEL-5 melanoma = system: SK-MEL-5 melanoma
SK-OV-3 ovarian = system: SK-OV-3 ovarian
SN12C renal = system: SN12C renal
SNB-19 CNS = system: SNB-19 CNS
SNB-75 CNS = system: SNB-75 CNS
SW-620 colon = system: SW-620 colon
T-47D breast = system: T-47D breast
TK-10 renal = system: TK-10 renal
U251 glioblastoma = system: U251 glioblastoma
UACC-257 melanoma = system: UACC-257 melanoma
UACC-62 melanoma = system: UACC-62 melanoma
UO-31 renal = system: UO-31 renal

`COC[C@H](NC(=O)c1cnc(C)s1)C(=O)N[C@@H](COC)C(=O)N[C@@H](Cc1ccccc1)C(=O)[C@@]1(C)CO1` showed a GI50 ([…]-0 renal) of less than 10 nM, a TGI (786-0 renal) of 127 nM and a GI50 (A498 renal) of less than 10 nM. It also gave a TGI (A498 renal) of 10.3 nM, a GI50 (A549 NSCLC) of less than 10 nM and a TGI (A549 NSCLC) of 256 nM. It also gave a GI50 (ACHN renal) of less than 10 nM, a TGI (ACHN renal) of 156 nM and a GI50 (BT-549 breast) of less than 10 nM. For the same molecule, the TGI (BT-549 breast) was less than 10 nM, the GI50 (CAKI-1 renal) was less than 10 nM and the TGI (CAKI-1 renal) was 1790 nM. For the same molecule, the GI50 (CCRF-CEM leukemia) was less than 10 nM, the TGI (CCRF-CEM leukemia) was less than 10 nM and the GI50 (COLO 205 colon) was less than 10 nM. The TGI (COLO 205 colon) was 1530 nM, the GI50 (DU-145 prostate) was less than 10 nM and the TGI (DU-145 prostate) was 223 nM. For the same molecule, the GI50 (EKVX NSCLC) was 14.4 nM, the TGI (EKVX NSCLC) was 77.3 nM and the GI50 (HCC-2998 colon) was less than 10 nM. It also gave a TGI (HCC-2998 colon) of 11.2 nM, a GI50 (HCT-116 colon) of less than 10 nM and a TGI (HCT-116 colon) of less than 10 nM. For the same molecule, the GI50 (HCT-15 colon) was 36.8 nM, the TGI (HCT-15 colon) was 154 nM and the GI50 (HL-60(TB) leukemia) was 10.7 nM. For the same molecule, the TGI (HL-60(TB) leukemia) was 23 nM, the GI50 (HOP-62 NSCLC) was less than 10 nM and the TGI (HOP-62 NSCLC) was less than 10 nM. For the same molecule, the GI50 (HOP-92 NSCLC) was less than 10 nM, the TGI (HOP-92 NSCLC) was less than 10 nM and the GI50 (HS 578T breast) was less than 10 nM. For the same molecule, the TGI (HS 578T breast) was less than 10 nM, the GI50 (HT29 colon) was less than 10 nM and the TGI (HT29 colon) was less than 10 nM. The GI50 (IGROV1 ovarian) was 15 nM, the TGI (IGROV1 ovarian) was 51.2 nM and the GI50 (K-562 leukemia) was 11 nM. For the same molecule, the TGI (K-562 leukemia) was 35.4 nM, the GI50 (KM12 colon) was less than 10 nM and the TGI (KM12 colon) was less than 10 nM. The GI50 (LOX IMVI melanoma) was less than 10 nM, the TGI (LOX IMVI melanoma) was 12 nM and the GI50 (M14 melanoma) was less than 10 nM. For the same molecule, the TGI (M14 melanoma) was less than 10 nM, the GI50 (MALME-3M melanoma) was less than 10 nM and the TGI (MALME-3M melanoma) was less than 10 nM. The GI50 (MCF7 breast) was less than 10 nM, the TGI (MCF7 breast) was 325 nM and the GI50 (MDA-MB-231 breast) was less than 10 nM. The TGI (MDA-MB-231 breast) was less than 10 nM, the GI50 (MDA-MB-435 melanoma) was less than 10 nM and the TGI (MDA-MB-435 melanoma) was less than 10 nM. It also gave a GI50 (MDA-MB-468 breast) of less than 10 nM, a TGI (MDA-MB-468 breast) of less than 10 nM and a GI50 (MOLT-4 leukemia) of less than 10 nM. For the same molecule, the TGI (MOLT-4 leukemia) was less than 10 nM, the GI50 (NCI-H226 lung) was less than 10 nM and the TGI (NCI-H226 lung) was less than 10 nM. For the same molecule, the GI50 (NCI-H23 lung) was less than 10 nM, the TGI (NCI-H23 lung) was less than 10 nM and the GI50 (NCI-H322M lung) was less than 10 nM. The TGI (NCI-H322M lung) was 236 nM, the GI50 (NCI-H460 NSCLC) was 23.1 nM and the TGI (NCI-H460 NSCLC) was 99.6 nM. For the same molecule, the GI50 (NCI-H522 lung) was less than 10 nM, the TGI (NCI-H522 lung) was less than 10 nM and the GI50 (NCI/ADR-RES ovarian) was 1290 nM. For the same molecule, the TGI (NCI/ADR-RES ovarian) was 2910 nM, the GI50 (OVCAR-3 ovarian) was less than 10 nM and the TGI (OVCAR-3 ovarian) was less than 10 nM. For the same molecule, the GI50 (OVCAR-4 ovarian) was 12.3 nM, the TGI (OVCAR-4 ovarian) was 29.8 nM and the GI50 (OVCAR-5 ovarian) was less than 10 nM. The TGI (OVCAR-5 ovarian) was 81.2 nM, the GI50 (OVCAR-8 ovarian) was less than 10 nM and the TGI (OVCAR-8 ovarian) was 62.2 nM. It also gave a GI50 (PC-3 prostate) of 10.5 nM, a TGI (PC-3 prostate) of 24 nM and a GI50 (RPMI-8226 leukemia) of less than 10 nM. For the same molecule, the TGI (RPMI-8226 leukemia) was less than 10 nM, the GI50 (RXF 393 renal) was less than 10 nM and the TGI (RXF 393 renal) was less than 10 nM. The GI50 (SF-268 CNS) was less than 10 nM, the TGI (SF-268 CNS) was less than 10 nM and the GI50 (SF-295 CNS) was less than 10 nM. It also gave a TGI (SF-295 CNS) of less than 10 nM, a GI50 (SF-539 CNS) of less than 10 nM and a TGI (SF-539 CNS) of less than 10 nM. It also gave a GI50 (SK-MEL-28 melanoma) of less than 10 nM, a TGI (SK-MEL-28 melanoma) of 12.8 nM and a GI50 (SK-MEL-5 melanoma) of less than 10 nM. The TGI (SK-MEL-5 melanoma) was less than 10 nM, the GI50 (SK-OV-3 ovarian) was less than 10 nM and the TGI (SK-OV-3 ovarian) was 23 nM. For the same molecule, the GI50 (SN12C renal) was 10.7 nM, the TGI (SN12C renal) was 30.3 nM and the GI50 (SNB-19 CNS) was less than 10 nM. The TGI (SNB-19 CNS) was 16.4 nM, the GI50 (SNB-75 CNS) was less than 10 nM and the TGI (SNB-75 CNS) was less than 10 nM. It also gave a GI50 (SW-620 colon) of less than 10 nM, a TGI (SW-620 colon) of less than 10 nM and a GI50 (T-47D breast) of less than 10 nM. For the same molecule, the TGI (T-47D breast) was less than 10 nM, the GI50 (TK-10 renal) was less than 10 nM and the TGI (TK-10 renal) was 22.5 nM. The GI50 (U251 glioblastoma) was 10.2 nM, the TGI (U251 glioblastoma) was 25.6 nM and the GI50 (UACC-257 melanoma) was less than 10 nM. The TGI (UACC-257 melanoma) was 11.7 nM, the GI50 (UACC-62 melanoma) was less than 10 nM and the TGI (UACC-62 melanoma) was less than 10 nM. The GI50 (UO-31 renal) was 17.2 nM and the TGI (UO-31 renal) was 33 nM.
